Measured values from article PMC6403188, “Species-Specific Structural Requirements of Alpha-Branched Trehalose Diester Mincle Agonists” (Frontiers in Immunology, 2019).

What was measured:
primary human PBMCs = assay: Cytokine production from primary human PBMCs (multiplex); type: cell-based; details: plate-coated compound, 24 h, 5 individual donors
Description: PBMCs were obtained via leukapheresis from normal donors (AllCells, Berkeley, CA) or fresh blood was obtained from health human donors through a University of Montana Institutional Review Board (IRB) approved protocol. PBMCs obtained via leukapheresis were washed in 1x PBS and cryopreserved in freezing media (50% RPMI, 40% FCS, 10% DMSO) for future use. PBMCs from on-site human donors were separated from whole blood via density gradient separation using Histopaque 1077 (Sigma). Cells were washed in RPMI media containing 10% heat inactivated FBS, penicillin/streptomycin/glutamine (complete media) and resuspended at the desired cell concentration in complete media. Cells were treated with the indicated compound concentrations by addition to plates coated with a serial dilution of the stock compound in diluent (50% isopropanol/50% isooctane, fully evaporated).
(§1) Supernatants were harvested from treated cells following 18–24 h of incubation. Supernatants were analyzed using a DuoSet TNFα ELISA (R&D Systems, Minneapolis, MN) or Luminex multiplex panel for analytes TNFα, IL-1β, IL-6, IFNγ, IL-12p70, and IL-23 (R&D Systems) per the manufacturer's instructions. Multiplex analysis was performed using a Luminex 200 instrument (Luminex Corporation) and analyzed with StarStation2.3 software. ELISAs were read on a plate reader at 450 nm and cytokine concentration was calculated by fitting the standard curve OD values to a 4-parameter logistical model using curve fitting software (XLfit, IDBS, Alameda, CA).
To determine if the abridged cytokine repertoire induced by the compounds from the cell lines was a cell-specific or compound-specific phenomenon, the response of a heterogeneous primary human PBMCs to the αTDE compound library was also evaluated. Primary human PBMCs were incubated with the αTDE compound and supernatants were evaluated by multiplex cytokine ELISA for TNFα, IL-1β, IL-23, IL-6 (Th17 associated) and IFNγ and IL-12p70 (Th1 associated). As with THP-1 cells, robust dose-responsive induction of TNFα and IL-1β was detected, but unlike the THP-1 cells dose-responsive stimulation of IL-6 and IL-23 production was also noted in response to a subset of the αTDE compounds (Figure 5). No production of the Th1-associated IFNγ or IL-12p70 were detected (data not shown). […] Consistent with the previous THP-1 cell responses, the longer chain length compounds, B32-B46, induced minimal cytokine responses only at the highest dose evaluated (Figure 5, right graphs).
Figure 5 Cytokine production from primary human mononuclear cells in response to stimulation with synthetic trehalose diester compounds. […] Cryopreserved PBMCs were thawed and applied to the compound-coated plates and incubated at 37°C; supernatant was harvested 24 h later and analyzed for TNFα, IL-1β, IL-23, IL-6. […]

mouse Mincle = target: T1, mouse Mincle (Mus musculus, UniProt Q9R0Q8); assay: HEK cells expressing mouse Mincle with NF-κB-driven SEAP reporter; type: cell-based; details: for EC50: average calculated EC50, n = 3, read-out: mMincle EC50 (converted); for EC50 / SEAP induction / activation of mouse Mincle-expressing HEK cells (in words): plate-coated compound, 24 h; for Relative activity in mouse vs. human Mincle HEK cells: comparison of mouse and human Mincle receptor transfected HEK cells
T1 construct: host or cells: HEK (HEK-Blue) cells with NF-κB-driven SEAP reporter
T1 sequence (Q9R0Q8 1-214): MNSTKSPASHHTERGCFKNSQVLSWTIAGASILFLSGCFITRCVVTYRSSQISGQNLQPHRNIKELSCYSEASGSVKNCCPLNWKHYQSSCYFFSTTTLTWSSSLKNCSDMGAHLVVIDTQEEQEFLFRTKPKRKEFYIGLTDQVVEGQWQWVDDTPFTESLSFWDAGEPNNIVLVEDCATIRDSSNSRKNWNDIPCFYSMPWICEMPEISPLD
Experimental: (§2) Human and mouse Mincle expressing HEK cells were obtained from Invivogen (San Diego, CA). Cells were cultured according to the manufactures instructions in DMEM with 10% FBS, 50 U/ml penicillin, […] streptomycin, […] Normocin, 2 mM L-glutamine, 30 μg/ml blasticidin, 1 μg/ml puromycin and 1x HEK-Blue™ CLR Selection. For assay, indicated compounds were serially diluted in diluent (50%IPA/50% isooctane), 20 μl of a 10x final concentration were applied to the bottom of a 96-well tissue culture plate and the solvent was evaporated for >1 h in a biosafety hood. HEK cells were applied to the plates at a density of 3 × 10^5 cells/well and incubated for 18–24 h at 37°C. Cell supernatants were harvested and analyzed via the manufacturer's instructions using Hek-Blue^TM Detection. SEAP activity was assessed by reading the optical density (OD) at 620–655 nm with a microplate reader; data are expressed as the fold change in OD over vehicle treated cells.
(§3) To investigate the capacity of these molecules to bind to and activate the Mincle receptor, we used human embryonic kidney (HEK) cells expressing the human or mouse Mincle receptor along with an NF-κB-driven secreted embryonic alkaline phosphatase (SEAP) reporter. Many of the αTDE compounds were able to induce production of SEAP in a dose dependent manner (Figure 2). HEK null cells (HEK cells containing the NF-kB reporter without Mincle receptor) were used as a negative controls to confirm the receptor specificity of the compounds in HEK cells expressing human or mouse Mincle reporter (Supplemental Figure 4). […] The relative activity of TDM and TDB in the human and mouse HEK cells is consistent with the results reported by others ([20]). […] This synthetic version is a shorter chain version of the lipid-derived one reported to be “human-specific” ([28]).
(§4) Figure 2 Activation of human or mouse Mincle in response to synthetic αTDE compounds. The indicated compounds were dissolved in 50% isopropanol/isooctane, serially diluted in vehicle and then dried to the bottom of a tissue culture plate. HEK cells transfected with human (A–C) or mouse (D–F) Mincle and an NF-κB-driven SEAP reporter were incubated with the compounds for 24 h followed by assessment of the supernatants for SEAP levels. Data are represented as fold change in OD650 over vehicle treated cells. Graphs are mean values from three independent experiments ± SEM. Table in (G) represents the average calculated EC50 and average max SEAP value (± SD, n = 3) for each compound in each cell line. […]

[1] = test system: Hek Blue human or mouse Mincle-expressing cells; type: cell-based; details: top concentrations, 24 h; compared with vehicle only-treated cells
human Mincle = target: T2, human Mincle (Homo sapiens, UniProt Q9ULY5); assay: HEK cells expressing human Mincle with NF-κB-driven SEAP reporter; type: cell-based; details: plate-coated compound, 24 h
T2 construct: host or cells: HEK (HEK-Blue) cells with NF-κB-driven SEAP reporter
T2 sequence (Q9ULY5 1-219): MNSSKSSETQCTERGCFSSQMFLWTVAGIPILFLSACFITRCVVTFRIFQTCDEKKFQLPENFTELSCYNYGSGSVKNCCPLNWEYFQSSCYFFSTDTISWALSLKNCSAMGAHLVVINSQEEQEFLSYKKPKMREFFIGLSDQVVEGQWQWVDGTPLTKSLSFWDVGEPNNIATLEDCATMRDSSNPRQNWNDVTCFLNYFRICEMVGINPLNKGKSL
Experimental: as §2, §3, §4

THP-1 cells = assay: TNFα production from THP-1 cells (ELISA); type: cell-based, human; details: plate-coated compound, 24 h
Experimental: as §1
Next, investigation into activity of the alpha-branched TDE compounds was extended to include both human and murine monocytic cell lines, THP-1 and RAW264.7, respectively. These cell lines have previously been reported as responsive to the Mincle receptor agonists TDM and TDB ([30], [31]).
Figure 3 TNFα production from human THP-1 cells in response to stimulation with synthetic αTDE compounds. The indicated compounds were dissolved in 50% isopropanol/isooctane, serially diluted in vehicle and then dried to the bottom of a tissue culture plate. THP-1 cells were applied to the compound-coated plates and incubated at 37°C; supernatant was harvested 24 h later and analyzed for TNFα via ELISA (A-E). Results from the 200 μg/ml concentration vs. each compounds acyl chain length are shown in (F). Data points are average of at least two independent experiments ± SD.

Structure (SMILES) | EC50 (human Mincle; average calculated EC50, n = 3, read-out: hMincle EC50 (converted)) [nM] | SEAP induction / activation of human Mincle-expressing HEK cells (in words) (human Mincle) | Relative activity in mouse vs. human Mincle HEK cells (mouse Mincle) | SEAP induction / activation of mouse Mincle-expressing HEK cells (in words) (mouse Mincle) | Th17-associated cytokine production (TNFα, IL-1β, IL-6, IL-23) from human PBMCs (primary human PBMCs) | EC50 (mouse Mincle) [nM] | Cell viability of Mincle HEK cells [1] | TNFα induction from THP-1 cells (in words) (THP-1 cells)
CCCCC(CCCC)C(=O)OC[C@H]1O[C@H](O[C@H]2O[C@H](COC(=O)C(CCCC)CCCC)[C@@H](O)[C@H](O)[C@H]2O)[C@H](O)[C@@H](O)[C@@H]1O [Compound B10] | – | – | – | – | readily detected | 3450 | marked decreases in viability | –
CC(C)C(=O)OC[C@H]1O[C@H](O[C@H]2O[C@H](COC(=O)C(C)C)[C@@H](O)[C@H](O)[C@H]2O)[C@H](O)[C@@H](O)[C@@H]1O [Compound B4] | – | – | – | – | mixed responses | – | – | –
CCCC(CCC)C(=O)OC[C@H]1O[C@H](O[C@H]2O[C@H](COC(=O)C(CCC)CCC)[C@@H](O)[C@H](O)[C@H]2O)[C@H](O)[C@@H](O)[C@@H]1O [Compound B8] | – | – | – | – | readily detected | 2850 | marked decreases in viability | –
CCCCCCCCCCCCCCCC(O)C(CCCCCCCCCCCCCC)C(=O)OCC(O)CO (centres unmarked) [MMG, synthetic glycerol monomycolate, reference compound] | – | able to activate | more potent in mouse Mincle HEK cells | able to activate | – | – | – | potent, robust induction of TNFα
CCC(CC)C(=O)OC[C@H]1O[C@H](O[C@H]2O[C@H](COC(=O)C(CC)CC)[C@@H](O)[C@H](O)[C@H]2O)[C@H](O)[C@@H](O)[C@@H]1O [Compound B6] | – | – | – | – | mixed responses | 739 | – | –

Now from value to compound, other results behind:

EC50 (human Mincle; average calculated EC50, n = 3, read-out: hMincle EC50 (converted)) [nM] | SEAP induction / activation of human Mincle-expressing HEK cells (in words) (human Mincle) | Relative activity in mouse vs. human Mincle HEK cells (mouse Mincle) | SEAP induction / activation of mouse Mincle-expressing HEK cells (in words) (mouse Mincle) | Structure (SMILES) | Th17-associated cytokine production (TNFα, IL-1β, IL-6, IL-23) from human PBMCs (primary human PBMCs) | EC50 (mouse Mincle) [nM] | Cell viability of Mincle HEK cells [1] | TNFα induction from THP-1 cells (in words) (THP-1 cells)
263 | – | – | – | CCCCCCCCCCCCC(CCCCCCCCCCCC)C(=O)OC[C@H]1O[C@H](O[C@H]2O[C@H](COC(=O)C(CCCCCCCCCCCC)CCCCCCCCCCCC)[C@@H](O)[C@H](O)[C@H]2O)[C@H](O)[C@@H](O)[C@@H]1O [Compound B26] | – | 907 | – | roughly equivalent levels of TNFα as B14/B16
– | robust ability to activate | more potent in the mouse vs. the human | robust ability to activate | CCCCCCCCCCCCCCCC(O)C(CCCCCCCCCCCCCC)C(=O)OC[C@H]1O[C@H](O[C@H]2O[C@H](COC(=O)C(CCCCCCCCCCCCCC)C(O)CCCCCCCCCCCCCCC)[C@@H](O)[C@H](O)[C@H]2O)[C@H](O)[C@@H](O)[C@@H]1O (some centres unmarked) [sTDCM, synthetic trehalose dicorynomycolate, reference compound] | – | – | – | potent, robust induction of TNFα
